Test results from PMC9964117, “Inhibitors against Two PDZ Domains of MDA-9 Suppressed Migration of Breast Cancer Cells” (International Journal of Molecular Sciences, 2023).
Residue numbers refer to the chain shown, from its start. Where two headings read alike, the source gives them in different places.

Key:
MDA-9 PDZ1 domain [1] = molecular target: T1, MDA-9 PDZ1 domain (Homo sapiens, UniProt O00560); parameters: method as in PMID 28011764; conditions: read-out: Affinity for MDA-9 PDZ1 domain; cited from earlier work
T1 construct: the N-terminal (1–109aa), PDZ1 (110–193aa), PDZ2 (194–274aa); made in house
T1 sequence (O00560 110-193): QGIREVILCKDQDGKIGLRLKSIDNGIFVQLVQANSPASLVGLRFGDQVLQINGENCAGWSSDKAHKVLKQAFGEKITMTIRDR

MDA-9 PDZ2 domain [2] = molecular target: T2, MDA-9 PDZ2 domain (Homo sapiens, UniProt O00560); conditions: cited from earlier work
T2 construct: PDZ1 (110–193aa), PDZ2 (194–274aa), and the C-terminal (275–298aa); made in house
T2 sequence (O00560 194-274): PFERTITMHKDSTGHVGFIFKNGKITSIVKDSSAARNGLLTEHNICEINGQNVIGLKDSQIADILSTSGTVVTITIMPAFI

glioma cells = system: glioma cells; parameters: method as in PMID 28011764; conditions: cited from earlier work
brain-tumor-bearing mice = system: brain-tumor-bearing mice; parameters: method as in PMID 28011764; conditions: cited from earlier work
[3] = system: prostate cancer or neuroblastoma; parameters: method as in PMID 31406249, PMID 31345950; conditions: cited from earlier work
MDA-9 PDZ1 domain [4] = molecular target: T1, MDA-9 PDZ1 domain; experiment: NMR chemical shift perturbation titration (1H-15N HSQC); conditions: 25 °C, pH 7.0, read-out: Binding affinity (Kd) to MDA-9 PDZ1 domain from dose-dependent CSPs
Experimental: (§1) NMR fragment-based screening was performed at 25 °C using an Agilent 700 MHZ spectrometer equipped with a 96-well autosampler (Agilent Technologies, Santa Clara, CA, USA). ^1H-^15N HSQC spectra were acquired from the ^15N-labeled MDA-9 PDZ1 and PDZ2 domains (0.05 mM). A fragment library of 890 compounds (Chembridge, SanDiego, CA, USA) and an approved drug library of 540 compounds (TargetMol, Boston, MA, USA) were pooled into cocktails, respectively, and each cocktail contained 10 compounds at 0.2 mM [39, 40]. The ^1H-^15N HSQC spectra were measured on an Agilent 700 MHz spectrometer at ligand/protein molar ratios ranging from 0.0 to 4.0.
(§2) The ^15N-labelled PDZ1 and PDZ2 domains of MDA-9 were concentrated in the HEPES buffer (20 mM HEPES, 100 mM NaCl, 1 mM EDTA, 1 mM DTT, pH 7.0) to 0.05 mmol/L. The screening fragment compounds were then titrated to these ^15N-labeled MDA-9 PDZ1 or PDZ2 domain, respectively. Each HSQC profile was collected (at molar ratios of 0.0, 2.0, 4.0, 8.0, 16.0, and 32.0 at 25 °C) using an Agilent 700 MHz spectrometer. NMR spectra were analyzed using Sparky. The chemical shift changes (Δδ), relative to the free form of the PDZ1 or PDZ2 domain, were calculated as follows:(1) Δδ=(∆δH^1)^2+(0.2ΔδN^15)^2 where ∆δH^1 and ΔδN^15 denote the chemical shift changes of ^1H and ^15N, respectively. […]

MDA-9 PDZ2 domain [5] = molecular target: T2, MDA-9 PDZ2 domain; experiment: as above; format: binding
Experimental: as §1, §2

[6] = molecular target: T3, MTSL-labeled C118/C166S mutant of MDA-9 PDZ1 domain (Homo sapiens, UniProt O00560, C166S); experiment: NMR CSP titration against MTSL-labeled mutant; conditions: dose-dependent CSP, read-out: Binding affinity to MTSL-labeled C118/C166S mutant of PDZ1
T3 construct: the N-terminal (1–109aa), PDZ1 (110–193aa), PDZ2 (194–274aa); made in house
T3 sequence (O00560 110-193 C166S): T1 sequence (O00560 110-193) with C57S
Experimental: (§3) The ^15N-labelled PDZ1 and PDZ2 domains of MDA-9 were concentrated in the HEPES buffer (20 mM HEPES, 100 mM NaCl, 1 mM EDTA, 1 mM DTT, pH 7.0) to 0.05 mmol/L. The screening fragment compounds were then titrated to these ^15N-labeled MDA-9 PDZ1 or PDZ2 domain, respectively. Each HSQC profile was collected (at molar ratios of 0.0, 2.0, 4.0, 8.0, 16.0, and 32.0 at 25 °C) using an Agilent 700 MHz spectrometer. NMR spectra were analyzed using Sparky. The chemical shift changes (Δδ), relative to the free form of the PDZ1 or PDZ2 domain, were calculated as follows:(1) Δδ=(∆δH^1)^2+(0.2ΔδN^15)^2 where ∆δH^1 and ΔδN^15 denote the chemical shift changes of ^1H and ^15N, respectively.
(§4) According to this equation, the binding constants can be best fitted with a binding mode of 1:1: Δδobs=Δδmax([P]t+[L]t+Kd)−([P]t+[L]t+Kd)^2−4[P]t[L]t/2[P]t where [P]t and [L]t represent the concentrations of the protein and ligand, respectively. Δδobs represents the observed chemical shift changes, relative to the free-state protein.
(§5) The ^15N-labeled PDZ1 C118/C166S mutant and the PDZ2 C239S/D256C mutant were expressed by the method described above. After the dilution of the protein solution to 0.5 mg/mL with a 1-fold excess of Tris(2-carboxyethyl) phosphine (TCEP), the solution was incubated for 2 h at room temperature. […] WATERGATE spectra with T2 delays of 0.04 and 0.8 s were recorded. […]

MDA-9 PDZ1 domain [7] = molecular target: T1, MDA-9 PDZ1 domain; experiment: Competitive fluorescence polarization with FITC-peptide; conditions: 80 μM PDZ1, 500 nM FITC-peptide; read-out: Binding affinity to PDZ1 from competitive FP
Experimental: (§6) For competitive FP experiments with the FITC-peptide, the PDZ1 domain concentration was set at 80 μM and the PDZ2 domain concentration at 250 μM. After that, each aliquot of the 200 μL sample contained 500 nM of the FITC-peptide, 80 μM of the PDZ1 or 250 μM of the PDZ2 domain, as well as different concentrations of PI1A or PI2A. A concentration range of 0–200 μM was administered for PI1A while a concentration range of 0–600 μM was administered for PI2A. Samples were repeated 3 times for each experimental group. The dissociation constants for the interactions between ligands and proteins were derived from the complete competitive FP equation proposed by Gerhard Wagner et al. (Biochemistry 2004). […]

MDA-MB-231 cells [8] = experiment: CCK8 cell viability assay; format: cell-based; conditions: 48 h treatment
Experimental: The MDA-MB-231 cells were obtained by a gift. CCK8 assay was used to assess the effects of PI1A or PI2A on the viability of MDA-MB-231 cells. Cells were placed in 96-well plates and treated with different concentrations of DMSO, PI1A, or PI2A for 48 h. Then, 10 μL of CCK8 solution was added to the wells. The 96-well plates were incubated in a CO2 incubator at 37 °C for another 1 h. OD values were measured at 450 nm using a CLARIOstar (BMG LABTECH) plate reader.

MDA-MB-231 cells [9] = experiment: Wound-healing assay; format: cell-based; conditions: 100 μM each compound, 0 and 24 h, relative to DMSO
Experimental: MDA-MB-231 cells were spread in 6-well plate culture dishes, where sh-MDA-9 cells were used as a positive control. DMSO (control), PI1A 100 μM, PI2A 100 μM, and both PI1A and PI2A 100 μM were added to the MDA-MB-231 cells, respectively. On newly grown monolayer cells, […] of the tip was used to line the central area of cell growth. Next, excess cells were washed away with PBS buffer. The cells were then cultured for the experimentally-determined period of time (0 h or 24 h). Lastly, the cell culture plates were removed separately and the peripheral cells were observed under a microscope to determine whether they had migrated to the scratched area.

[10] = molecular target: T4, A255V mutant of MDA-9 PDZ2 domain (Homo sapiens, UniProt O00560, A255V); experiment: NMR CSP titration against mutant; format: binding
T4 construct: PDZ1 (110–193aa), PDZ2 (194–274aa), and the C-terminal (275–298aa); made in house
T4 sequence (O00560 194-274 A255V): T2 sequence (O00560 194-274) with A62V
Experimental: as §3, §4

[11] = molecular target: T5, G210A mutant of MDA-9 PDZ2 domain (Homo sapiens, UniProt O00560, G210A); experiment: NMR CSP titration against mutant; format: binding; conditions: relative to wild type
T5 construct: PDZ1 (110–193aa), PDZ2 (194–274aa), and the C-terminal (275–298aa); made in house
T5 sequence (O00560 194-274 G210A): T2 sequence (O00560 194-274) with G17A
Experimental: as §3, §4

[12] = molecular target: T6, H208A mutant of MDA-9 PDZ2 domain (Homo sapiens, UniProt O00560, H208A); experiment: NMR CSP titration against mutant; format: binding
T6 construct: PDZ1 (110–193aa), PDZ2 (194–274aa), and the C-terminal (275–298aa); made in house
T6 sequence (O00560 194-274 H208A): T2 sequence (O00560 194-274) with H15A
Experimental: as §3, §4

[13] = molecular target: T7, V209A mutant of MDA-9 PDZ2 domain (Homo sapiens, UniProt O00560, V209A); experiment: NMR CSP titration against mutant; format: binding; conditions: relative to wild type
T7 construct: PDZ1 (110–193aa), PDZ2 (194–274aa), and the C-terminal (275–298aa); made in house
T7 sequence (O00560 194-274 V209A): T2 sequence (O00560 194-274) with V16A
Experimental: as §3, §4

[14] = molecular target: T8, V209I mutant of MDA-9 PDZ2 domain (Homo sapiens, UniProt O00560, V209I); experiment: NMR CSP titration against mutant; format: binding
T8 construct: PDZ1 (110–193aa), PDZ2 (194–274aa), and the C-terminal (275–298aa); made in house
T8 sequence (O00560 194-274 V209I): T2 sequence (O00560 194-274) with V16I
Experimental: as §3, §4

[15] = molecular target: T9, MTSL-labeled C239S/D256C mutant of MDA-9 PDZ2 domain (Homo sapiens, UniProt O00560, C239S/D256C); experiment: NMR CSP titration against MTSL-labeled mutant; format: binding; conditions: dose-dependent CSP
T9 construct: PDZ1 (110–193aa), PDZ2 (194–274aa), and the C-terminal (275–298aa); made in house
T9 sequence (O00560 194-274 C239S/D256C): T2 sequence (O00560 194-274) with C46S, D63C
Experimental: as §3, §4, §5

MDA-9 PDZ2 domain [16] = molecular target: T2, MDA-9 PDZ2 domain; experiment: Competitive fluorescence polarization with FITC-peptide; conditions: 250 μM PDZ2, 500 nM FITC-peptide; read-out: Binding affinity to PDZ2 from competitive FP
Experimental: as §6

Compound	Kd (MDA-9 PDZ1 domain [1]) [µM]	Binding to MDA-9 PDZ2 domain (in words) (MDA-9 PDZ2 domain [2])	Invasion of glioma cells (glioma cells)	Survival rate in brain-tumor-bearing mice (brain-tumor-bearing mice)	In vivo activity against prostate cancer or neuroblastoma [3]	Kd (MDA-9 PDZ1 domain [4]) [µM]	Binding to MDA-9 PDZ2 domain (in words) (MDA-9 PDZ2 domain [5])	Kd [6] [µM]	Kd (MDA-9 PDZ1 domain [7]) [µM]	Toxicity / viability of MDA-MB-231 cells (CCK8) (MDA-MB-231 cells [8])	Migration of MDA-MB-231 cells (wound closure) (MDA-MB-231 cells [9])	Kd (MDA-9 PDZ2 domain [5]; 25 °C, pH 7.0, read-out: Binding affinity (Kd) to MDA-9 PDZ2 domain by NMR titration) [µM]	Kd [10] [µM]	Binding affinity to G210A mutant of PDZ2 (in words) [11]	Binding to H208A mutant of PDZ2 (in words) [12]	Binding affinity to V209A mutant of PDZ2 (in words) [13]	Kd [14] [µM]	Effect of MTSL labeling of C239S/D256C PDZ2 mutant on inhibitor binding affinity (in words) [15]	Kd (MDA-9 PDZ2 domain [16]) [µM]
Cc1cc(NC(=O)c2nc3nc4c(c(=O)n3[nH]2)CCC4)c(C)cc1NC(=O)CCc1nnc(-c2ccccc2)o1 [PDZ1i]	21	did not bind significantly	inhibited the invasion	improved survival rate	exhibited in vivo activity	–	–	–	–	–	–	–	–	–	–	–	–	–	–
Cc1cc(Nc2ccccc2C(=O)O)ccc1Cl [PI1A]	–	–	–	–	–	110	did not bind	250	170	not toxic	suppressed the migration	–	–	–	–	–	–	–	–
O=C(O)c1cc(-c2ccc(F)cc2)n[nH]1 [PI2A]	–	–	–	–	–	> 1000	–	–	–	not toxic	suppressed the migration	500	> 5000	reduced binding affinities	incapable of binding	reduced binding affinities	> 5000	did not disrupt	510
